Results published in patent US9808441B2, “Dietary supplement containing alkaline electrolyte buffers” (priority 1999, dated 2017).

Assay: pH of dietary/therapeutic supplements, alkaline minerals and supplement compositions
Format: physicochemical
Conditions: for pH of alkaline mineral: lower value, 'and up depending upon the form' of the mineral
From the text: It is noted that wherein pH is referred to for a dry or non-liquid material, it means where the material is mixed with a liquid, such as in the body of a user.
When an individual takes any one of these supplements with the meal, the body begins the digestion process of the supplement and the meal and the body begins to try to eliminate resulting waste due to needed raise in pH and to buffer the system. The body will utilize any buffer that can be found within the food, supplement, and after that will begin to draw the alkaline minerals from within the system itself.

[1] = dietary or therapeutic supplement prior to combination with alkaline minerals (table)

Row | Compound | pH [1] | pH (supplement or ingredient alone, without alkaline electrolytes (text; typical/normal value)) | pH of alkaline mineral
1 | O=C1O[C@H]([C@@H](O)CO)C(O)=C1O [Ascorbic Acid] | 3.23 | about 3.23 | 
2 | N[C@H]1C(O)O[C@H](CO)[C@@H](O)[C@@H]1O (stereo partly drawn) [Glucosamine] | 5.5 |  | 
3 | O=C(O)c1cccnc1 [Niacin] | 3.4 |  | 
4 | [Zn] [Zinc] | 3.5 |  | 
5 | [Ca+2] [calcium] |  |  | ≥ 8.28
6 | [Mg+2] [magnesium] |  |  | ≥ 7.20
7 | [K+] [potassium] |  |  | ≥ 9.69
8 | Vitamin E | 6.1 |  | 
